Measured values reported in US7615366B2, “Bacillus amyloliquefaciens KTGB0202 and control method of plant pathogenic fungi using that” (KT & G Co., Ltd., priority 2003, dated 2009).

Tests used:
[1] = tested on: melon powdery mildew; test: Control effect against melon powdery mildew; conditions: 4000-fold-diluted concentration (control chemicals)
Description: The bacteria culture was spread to melons with a powdery mildew incidence of about 10% under greenhouse conditions three times at one-week intervals, and after 7 days, the results were examined.
Trifumin® and Fenari® (Fenarimol) were used at a 4000-fold-diluted concentration, a recommended concentration for farmhouses.
The number of leaves with melon powdery mildew was counted before and after treatment so as to yield therapeutic effects.

[2] = tested on: cucumber powdery mildew; test: Control effect against cucumber powdery mildew; conditions: 4000-fold-diluted concentration (control chemical)
Description: Also, Trifumin® (Triflumizole) was used at a 4000-fold-diluted concentration, a recommended concentration for farmhouses.

## OC(c1ccc(Cl)cc1)(c1cncnc1)c1ccccc1Cl (stereo not drawn) [Fenari ® (Fenarimol), Fenarimol]
[1]
  Number of infected leaves before treatment/number of infected leaves after treatment: 9/6
  Therapeutic effect: 33.4

## CCCOC/C(=N\c1ccc(Cl)cc1C(F)(F)F)n1ccnc1 [Trifumin ® (Triflumizole), Triflumizole]
[1]
  Number of infected leaves before treatment/number of infected leaves after treatment: 10/0
  Therapeutic effect: 100
[2]
  Control effect (%): 96.59%
  Incidence (%): 3.41%
